Test results as given in patent US4220755A, “Fortimicin B derivatives and process for production thereof” (Abbott Laboratories, priority 1976, dated 1980).
Converted amounts (≈) assume the structure as drawn.

Experiments:
[1] = Stability in alkaline aqueous conditions; assay type: physicochemical; conditions: for Stability in aqueous solution: pH 10, room temperature, within one hour
Experimental: The stability of 4-N-acylfortimicin B derivatives in aqueous alkaline conditions is poor. […] Therefore, purification of these compounds under basic conditions (for example, column chromatography with Amberlite CG-50, eluting with aqueous ammonia) is not practical.
In contrast with the instability of 4-N-acylfortimicin B derivatives, 4-N-alkylfortimicin B derivatives are so stable that no decomposition occurs even in aqueous barium hydroxide solution at reflux temperature for 18 hours. Therefore, in the case of 4-N-alkylfortimicin B, any substituents can be introduced at 4-N-position of fortimicin B, even though such substituents can not be introduced as the acyl type to such position due to the aforementioned instability.

Bacillus subtilis KY4273 = assay: MIC, agar dilution method, pH 8.0; assay type: cell-based; conditions: pH 8.0; Bacillus subtilis KY4273; read-out: Minimum inhibition concentration (MIC), BS
Experimental: (§1) Measurement was carried out according to the agar dilution method, using a medium of pH 8.0, or the Japanese Antibiotic Medicament Standard, using a medium of pH 7.2 Units are in mcg/ml.
B.S.: Bacillus subtilis KY4273

[2] = tested on: Eschericia coli KY4271 ATCC26; assay: MIC, agar dilution method, pH 8.0; assay type: cell-based; conditions: Escherichia coli, ATCC26; pH 8.0; E. coli KY4271; read-out: Minimum inhibition concentration (MIC), EC
Experimental: as §1
E.C.: Eschericia coli KY4271 ATCC26

[3] = tested on: Salmonella typhosa KY4278 ATCC9992; assay: MIC, agar dilution method, pH 8.0; assay type: cell-based; conditions: Salmonella enterica, pH 8, read-out: Minimum inhibition concentration (MIC), ST
Experimental: as §1
S.T.: Salmonella typhosa KY4278 ATCC9992

[4] = tested on: Klebsiella pneumoniae KY4275 ATCC10031; assay: MIC, agar dilution method, pH 8.0; assay type: cell-based; conditions: ATCC10031; pH 8.0; Klebsiella pneumoniae KY4275; read-out: Minimum inhibition concentration (MIC), KP
Experimental: as §1
K.P.: Klebsiella pneumoniae KY4275 ATCC10031.

[5] = tested on: Staphylococcus aureus KY4279 ATCC6538P; assay: MIC, agar dilution method, pH 8.0; assay type: cell-based; conditions: pH 8.0, Staphylococcus aureus KY4279, read-out: Minimum inhibition concentration (MIC), SA
Experimental: as §1
S.A.: Staphylococcus aureus KY4279 ATCC6538P

[6] = tested on: Proteus vulgaris KY4277 ATCC6897; assay: MIC, agar dilution method, pH 8.0; assay type: cell-based; conditions: ATCC6897; pH 8.0; Proteus vulgaris KY4277; read-out: Minimum inhibition concentration (MIC), PV
Experimental: as §1

[7] = tested on: Shigella sonnei KY4281 ATCC9290; assay: MIC, agar dilution method, pH 8.0; assay type: cell-based; conditions: ATCC9290; pH 8.0; Shigella sonnei KY4281; read-out: Minimum inhibition concentration (MIC), SS
Experimental: as §1

[8] = tested on: Escherichia coli R18 KY8321; assay: MIC, agar dilution method, pH 7.2; assay type: cell-based; conditions: R18KY8321, E. coli R18 KY8321, 2**: gentamicin, producing adenylsynthetase and neomycin phosphotransferase type II, read-out: Minimum inhibition concentration (MIC)
Experimental: as §1
2: gentamicin, producing adenylsynthetase and neomycin phosphotransferase

[9] = tested on: Pseudomonas aeruginosa UCLA 4184; assay: MIC, agar dilution method, pH 7.2; assay type: cell-based; conditions: UCLA4184; pH 7.2; Pseudomonas aeruginosa UCLA 4184; read-out: Minimum inhibition concentration (MIC)
Experimental: as §1

[10] = tested on: Klebsiella pneumoniae KY4274; assay: MIC, agar dilution method, pH 7.2; assay type: cell-based; conditions: Klebsiella pneumoniae, KY4274, pH 7.2, read-out: Minimum inhibition concentration (MIC)
Experimental: as §1

[11] = tested on: Eschericihia coli GN2411-5; assay: MIC, agar dilution method, pH 7.2; assay type: cell-based; conditions: Escherichia coli, GN2411, pH 7.2, read-out: Minimum inhibition concentration (MIC)
Experimental: as §1

[12] = tested on: Staphylococcus aureus 209-P; assay: MIC, agar dilution method, pH 7.2; assay type: cell-based; conditions: pH 7.2; Staphylococcus aureus 209-P; read-out: Minimum inhibition concentration (MIC)
Experimental: as §1

Proteus vulgaris JJ = assay: MIC, agar dilution method, pH 7.2; assay type: cell-based; conditions: Proteus vulgaris, pH 7.2, read-out: Minimum inhibition concentration (MIC)
Experimental: as §1

Escherichia coli NIHTC-2 = assay: MIC, agar dilution method, pH 7.2; assay type: cell-based; conditions: Escherichia coli, NIHTC2, pH 7.2, read-out: Minimum inhibition concentration (MIC)
Experimental: as §1

Shigella sonnei ATCC9290 = assay: MIC, agar dilution method, pH 7.2; assay type: cell-based; conditions: read-out: Minimum inhibition concentration (MIC)
Experimental: as §1

[13] = tested on: Pseudomonas aeruginosa BMH# 1; assay: MIC, agar dilution method, pH 7.2; assay type: cell-based; conditions: pH 7.2; Pseudomonas aeruginosa BMH# 1; read-out: Minimum inhibition concentration (MIC)
Experimental: as §1

[14] = tested on: Staphylococcus aureus Smith (A); assay: MIC, agar dilution method, pH 7.2; assay type: cell-based; conditions: pH 7.2; Staphylococcus aureus Smith (A); read-out: Minimum inhibition concentration (MIC)
Experimental: as §1

[15] = tested on: Salmonella enteritidis G-14; assay: MIC, agar dilution method, pH 7.2; assay type: cell-based; conditions: Salmonella enterica, ENTERITIDIS, pH 7.2, read-out: Minimum inhibition concentration (MIC)
Experimental: as §1

[16] = tested on: Escherichia coli 57R/W677; assay: MIC, agar dilution method, pH 7.2; assay type: cell-based; conditions: 57R/W677, pH 7.2, read-out: Minimum inhibition concentration (MIC)
Experimental: as §1
(§2) **1: gentamicin, producing adenylsynthetase.

Escherichia coli 76-2 = assay: MIC, agar dilution method, pH 7.2; assay type: cell-based; conditions: Escherichia coli, 762, pH 7.2, read-out: Minimum inhibition concentration (MIC)
Experimental: as §1, §2

[17] = tested on: Escherichia coli R12 Z-338; assay: MIC, agar dilution method, pH 7.2; assay type: cell-based; conditions: R12Z338, pH 7.2, E. coli R12 Z-338, 1**: gentamicin, producing adenylsynthetase, read-out: Minimum inhibition concentration (MIC)
Experimental: as §1, §2

[18] = tested on: Klebsiella pneumoniae 3020 Y-60; assay: MIC, agar dilution method, pH 7.2; assay type: cell-based; conditions: 3020Y60; pH 7.2; Klebsiella pneumoniae 3020 Y-60; 1**: gentamicin, producing adenylsynthetase; read-out: Minimum inhibition concentration (MIC)
Experimental: as §1, §2

[19] = tested on: Escherichia coli R17 Z343; assay: MIC, agar dilution method, pH 7.2; assay type: cell-based; conditions: R17Z343, pH 7.2, read-out: Minimum inhibition concentration (MIC)
Experimental: as §1
(§3) 3: kanamycin, producing acetyltransferase.

Serratia marcescens 1065 = assay: MIC, agar dilution method, pH 7.2; assay type: cell-based; conditions: Serratia marcescens, 1065, pH 7.2, read-out: Minimum inhibition concentration (MIC)
Experimental: as §1, §3

[20] = tested on: Pseudomonas aeruginosa R9 KY8516; assay: MIC, agar dilution method, pH 7.2; assay type: cell-based; conditions: R9KY8516, pH 7.2, P. aeruginosa R9 KY8516, 3**: kanamycin, producing acetyltransferase, read-out: Minimum inhibition concentration (MIC)
Experimental: as §1, §3

[21] = tested on: Escherichia coli R20 KY8349; assay: MIC, agar dilution method, pH 7.2; assay type: cell-based; conditions: R20KY8349, pH 7.2, E. coli R20 KY8349, 5**: neomycin, producing phosphotransferase type I, read-out: Minimum inhibition concentration (MIC)
Experimental: as §1
5: neomycin, producing phosphotransferase type I.

[22] = tested on: Pseudomonas aeruginosa R4 KY8511; assay: MIC, agar dilution method, pH 7.2; assay type: cell-based; conditions: R4KY8511, pH 7.2, P. aeruginosa R4 KY8511, 4**: gentamicin, producing acetyltransferase type I, read-out: Minimum inhibition concentration (MIC)
Experimental: as §1
(§4) 4: gentamicin, producing acetyltransferase type I.

[23] = tested on: Escherichia coli R19 KY8348; assay: MIC, agar dilution method, pH 7.2; assay type: cell-based; conditions: R19KY8348, pH 7.2, E. coli R19 KY8348, 4**: gentamicin, producing acetyltransferase type I, read-out: Minimum inhibition concentration (MIC)
Experimental: as §1, §4

Eschericihia coli 3100 = assay: MIC, agar dilution method, pH 7.2; assay type: cell-based, Escherichia coli; conditions: Escherichia coli; pH 7.2; E. coli 3100; read-out: Minimum inhibition concentration (MIC)
Experimental: as §1

Providencia sp 164 = assay: MIC, agar dilution method, pH 7.2; assay type: cell-based; conditions: pH 7.2; Providencia sp 164; 7**: gentamicin, producing acetyltransferase type II; read-out: Minimum inhibition concentration (MIC)
Experimental: as §1
7: gentamicin, producing acetyltransferase type II.

[24] = tested on: Pseudomonas aeruginosa R5 KY8512; assay: MIC, agar dilution method, pH 7.2; assay type: cell-based; conditions: R5KY8512, pH 7.2, P. aeruginosa R5 KY8512, 6**: neomycin, producing phosphotransferase type I and type II, read-out: Minimum inhibition concentration (MIC)
Experimental: as §1
6: neomycin, producing phosphotransferase type I and type II.

[25] = tested on: Staphylococcus a ureus 226; assay: MIC, agar dilution method, pH 7.2; assay type: cell-based, Staphylococcus aureus; conditions: pH 7.2; Staphylococcus aureus 226; read-out: Minimum inhibition concentration (MIC)
Experimental: as §1

CO[C@H]1[C@@H](O)[C@H](N)[C@@H](O[C@H]2O[C@H]([C@H](C)N)CC[C@H]2N)[C@H](O)[C@@H]1N(C)C(=O)CCCCN [Compound 11, 4-N-(δ-amino-n-valeryl)fortimicin B]
Stability in alkali condition (MIC medium) ([1]; pH 8.0): unstable
Stability in aqueous solution [1]: almost completely decomposed

CO[C@H]1[C@@H](O)[C@H](N)[C@@H](O[C@H]2O[C@H]([C@H](C)N)CC[C@H]2N)[C@H](O)[C@@H]1N(C)C(=O)[C@@H](O)CCN [Compound 14, 4-N-[L-(-)-γ-amino-α-hydroxybutyryl]fortimicin B]
Stability in aqueous solution [1]: almost completely decomposed
MIC (Bacillus subtilis KY4273): 5 µg/mL (≈ 11.1 µM)
MIC [2]: 0.63 µg/mL (≈ 1.4 µM)
MIC [3]: 2.5 µg/mL (≈ 5.56 µM)
MIC [4]: 5 µg/mL (≈ 11.1 µM)
MIC [5]: 0.63 µg/mL (≈ 1.4 µM)
MIC [6]: 10 µg/mL (≈ 22.2 µM)
MIC [7]: 20 µg/mL (≈ 44.5 µM)

CO[C@H]1[C@@H](O)[C@H](N)[C@@H](O[C@H]2O[C@H]([C@H](C)N)CC[C@H]2N)[C@H](O)[C@@H]1N(C)CC(O)CCN (stereo partly drawn) [Compound 29, 4-N-[(R,S)-4-amino-2-hydroxybutyl]fortimicin B]
MIC [8]: 12.5 µg/mL (≈ 28.7 µM)
MIC [9]: 25 µg/mL (≈ 57.4 µM)
MIC [10]: 6.25 µg/mL (≈ 14.3 µM)
MIC [11]: 6.25 µg/mL (≈ 14.3 µM)
MIC [12]: 0.4 µg/mL (≈ 0.918 µM)
MIC (Proteus vulgaris JJ): 3.12 µg/mL (≈ 7.16 µM)
MIC (Escherichia coli NIHTC-2): 3.12 µg/mL (≈ 7.16 µM)
MIC (Shigella sonnei ATCC9290): 6.25 µg/mL (≈ 14.3 µM)
MIC [13]: 12.5 µg/mL (≈ 28.7 µM)
MIC [14]: 0.4 µg/mL (≈ 0.918 µM)
MIC [15]: 6.25 µg/mL (≈ 14.3 µM)
MIC (Bacillus subtilis KY4273): 0.04 µg/mL (≈ 0.0918 µM)
MIC [2]: 0.16 µg/mL (≈ 0.367 µM)
MIC [16]: 12.5 µg/mL (≈ 28.7 µM)
MIC (Escherichia coli 76-2): 3.12 µg/mL (≈ 7.16 µM)
MIC [17]: 12.5 µg/mL (≈ 28.7 µM)
MIC [18]: 25 µg/mL (≈ 57.4 µM)
MIC [19]: 3.12 µg/mL (≈ 7.16 µM)
MIC (Serratia marcescens 1065): 6.25 µg/mL (≈ 14.3 µM)
MIC [20]: 50 µg/mL (≈ 115 µM)
MIC [21]: 3.12 µg/mL (≈ 7.16 µM)
MIC [3]: 0.16 µg/mL (≈ 0.367 µM)
MIC [4]: 0.63 µg/mL (≈ 1.45 µM)
MIC [5]: 0.08 µg/mL (≈ 0.184 µM)
MIC [6]: 0.32 µg/mL (≈ 0.735 µM)
MIC [7]: 0.63 µg/mL (≈ 1.45 µM)
MIC [22]: > 100 µg/mL
MIC [23]: > 100 µg/mL
MIC (Eschericihia coli 3100): 12.5 µg/mL (≈ 28.7 µM)
MIC (Providencia sp 164): 25 µg/mL (≈ 57.4 µM)
MIC [24]: 12.5 µg/mL (≈ 28.7 µM)
MIC [25]: 0.78 µg/mL (≈ 1.79 µM)
